Entries after “also recorded” stand apart in the source; their conditions may differ.
Columns and labels:
[1] = tested on: neutrophil transmigration across a confluent monolayer of cultured human umbilical vein endothelial cells (HUVEC); assay: Neutrophil transmigration assay across HUVEC monolayer on Transwells; type: cell-based
Protocol: FIG. 1 is a graphical representation of inhibitors that act on MEK inhibit neutrophil transmigration across endothelium. A, Confluent HUVEC monolayers plated (5×10^4 cells/well) on Transwells were either unstimulated or activated with TNFα (4 ng/ml) for 4 hours. Thirty min prior to the assay some monolayers were treated with PD98059 (45 μM) or DMSO control. Neutrophils (5×10^5 cells/well) were added with either PD98059 or DMSO. Transmigration was assayed across TNFα-activated endothelium (TNF) and unstimulated endothelium with (fMLP) or without (Nil) a gradient of 10 nM fMLP. The assays were carried out in triplicate and 1 representative of 5 experiments shown. An ANOVA was performed looking for an effect of PD98059 compared to DMSO on transmigration: in this experiment p<0.0001 and in the overall series p<0.0001. B, Endothelial monolayers were treated as in A, but the concentration of PD98059 was varied as indicated. The data are presented as percentage of transmigration relative to that across unstimulated endothelium. One representative experiment of 7, each performed in triplicate, is shown. […] C, Endothelial cells on Transwells were left unstimulated or activated with TNFα as in A. Using the standard protocol, U0126 or its solvent, DMSO, were added to the monolayers 30 min prior to the experiment, and then added with the neutrophils. The results from one of two experiments, each performed in triplicate, is shown.
This was performed as previously described using Transwells (6.5 mm diameter, […] pore size, Costar, Cambridge, Mass.) on 24 well culture trays (Smith et al., 1991, supra). Briefly, 5×10^4 HUVEC (between passages 2 and 5) were seeded in the upper chamber of each Transwell pre-coated with fibronectin (50 μg/mL for 30 minutes) and the cells were grown at 37° C. in 5% CO2 supplemented air to form a confluent monolayer. Neutrophils were added at 5×10^5 cells/well to the top chamber and where indicated chemoattractant was added to the lower chamber. The neutrophils were incubated at 37° C. for 1 h after which the number that had transmigrated into the lower chamber were collected and counted. Transmigration is expressed as a percentage of neutrophils added.
Neutrophils were counted using one of two methods. Neutrophils retrieved from the lower compartment were either counted directly using a Coulter counter (Model ZF, Coulter, Herts, UK) or using an indirect colourimetric assay based on the conversion of a tetrazolium salt (MTT) to a formazan. Briefly, MTT (0.2 mg/ml, Sigma, St. Louis, […].) was added to the lower chamber and incubated for 4 hours at 37° C. The neutrophils were pelleted by centrifugation, the pellets resuspended in 200 μl acid isopropanol for an hour and the absorbance at 550 nm determined. A standard curve was constructed by serial dilution of the neutrophil preparation and the percentage of neutrophils transmigrating was calculated from this. The two methods used produced results of good fit (least squares fit regression analysis, >95% confidence) (data not shown).
To identify signalling pathways in the endothelium that are essential for neutrophil transmigration, a screen for their effects on transmigration was carried out using pharmacological inhibitors of various signalling pathways (data not shown). The studies were performed using an in vitro model of neutrophil transmigration across a confluent monolayer of cultured human umbilical vein endothelial cells (HUVEC). Transmigration induced by an exogeneously added chemoattractant gradient and across TNFα-activated endothelium were both examined. […] In general, transmigration across TNFα-activated endothelium was inhibited to a greater extent than transmigration across a gradient of fMLP, with 70-80% inhibition of transmigration across TNFα-activated endothelium compared to only 40-50% inhibition of transmigration across an fMLP gradient. The inhibitory effects of PD98059 were also confirmed using a second MEK inhibitor, U0126 (FIG. 1C).

endothelial ERK (HUVEC) [2] = assay: ERK activation assay (Western blot with phospho-ERK Ab); type: cell-based, human; conditions: for endothelial ERK activation by direct treatment of endothelial monolayer: HUVEC treated 15 min, no neutrophils, anti-phospho-ERK Western blot
Protocol: A, Endothelial cells treated with 0.4 ng/ml TNFα (TNF), 30 ng/ml interleukin-4 (IL-4), 20 ng/ml oncostatin-M (OsM), 100 ng/ml PMA, or medium alone (Nil) for 15 minutes were assayed for Erk activation. Western blots shown were carried out using an anti-phospho-Erk Ab to detect activated Erk. Equal amounts of protein were loaded onto each lane. B, HUVEC were activated with TNFα for 4 hours or left unstimulated. After washing, either medium containing IL-8 (−) or neutrophils pre-treated with 1 nM IL-8 (+) were added at a 10:1 ratio of neutrophils to HUVEC and Erk activation assayed after 15 min at 37° C. Western blots shown were carried out using antibodies to phospho-Erk (upper panel) or reprobed with an anti-Erk polyclonal antibody after membranes were stripped (lower panel).
A, Neutrophils, untreated or incubated with a β2 integrin functional blocking antibody, TS1/18 (50 μg/ml), for 20 min at room temperature were added to HUVEC in the presence of 1 nM fMLP for 15 min. HUVEC monolayers were then analysed for Erk activation by Western blotting with an anti-phospho-Erk Ab. B, Neutrophils, untreated or treated with the TS1/18 Ab as in A, were added to 96-well tissue culture dishes in the presence or absence of 1 nM fMLP and neutrophil adhesion was determined. The data is presented as the percentage of neutrophil remaining adherent relative to that added (% adhesion). By ANOVA comparing +/−TS1/18, p=0.0002, n=3.
Resting HUVEC monolayers incubated with medium (nil), neutrophils (N) or neutrophil conditioned medium (CM), were analysed for Erk activation by Western blotting with an anti-phospho-Erk Ab. A, Neutrophils were stimulated for 15 minutes with 1 nM fMLP and then divided into two aliquots. One aliquot was centrifuged and the top 2/3 taken, carefully avoiding the cellular pellet, and added as conditioned medium (CM). The other aliquot was resuspended and 2/3 taken and added as the equivalent amount of neutrophil preparation (N). B. Conditioned media from neutrophils treated with 1 or 100 nM fMLP (prepared as in A) were added to HUVEC either undiluted (neat) or after diluting 1 in 3 (1/3) in medium. […]
HUVEC (10^6 cells/well) were seeded in 6-well tissue culture dishes. […] Protein concentration was determined using the Bradford reagent (BioRad) and equal amounts of protein loaded onto a 7.5% SDS polyacrylamide gel. […] Total ERK present was determined by stripping the filter and re-blotting with an antibody against ERK 1/2.
We therefore investigated whether ERK activation in the endothelium may be occurring under the conditions of the transmigration assay and which parameter(s) present in the assay system were responsible for its activation. Initially, the role of the inducers, TNFα and fMLP, used in the transmigration assay were assessed. […]

endothelial ERK (HUVEC) [3] = conditions: Xia et al. 1998; cited from earlier work
[4] = tested on: neutrophil adhesion to TNFα-activated endothelium; assay: Neutrophil adhesion assay on HUVEC monolayer; type: cell-based, human
Protocol: (§1) A, Chemotaxis assay using neutrophils pretreated for 20 min at room temperature with 30 μM PD98059 or DMSO. Chemotaxis was stimulated by the presence of 10 nM fMLP, or 1 nM IL-8 in the lower chamber; medium alone served as a control (nil). The data represent one of three experiments, each performed in triplicate. ANOVA looking for an effect of PD98059 compared to DMSO on chemotaxis gave p=0.359. B, Confluent HUVEC monolayers were stimulated with TNFα for 4 h, with PD98059 or DMSO added in the final 30 min. The extent of neutrophil adhesion to the endothelium was determined using a standard adhesion assay. The data is presented as the percentage of neutrophil remaining adherent relative to that added (% adhesion). The results represent one of three experiments, each performed in triplicate. (p=0.238, t-test comparing DMSO+TNF with PD+TNF).
Adhesion assays were performed as previously described (Gamble, J. R., Y. Khew-Goodall, and M. A. Vadas. 1993. J Immunol. 150:4494-4503) with the exception that neutrophils were used. […] After washing the cells were stained with Rose Bengal and total numbers of adherent neutrophils determined by densitometry. The number of adherent neutrophils was computed from a standard curve and expressed as a percentage of the neutrophils added. […]

neutrophil chemotaxis = assay: Neutrophil chemotaxis assay (Transwells, no HUVEC monolayer); type: cell-based, human; conditions: 30 μM PD98059 vs DMSO
Protocol: as §1
Chemotaxis assays were performed using Transwells essentially as in the transmigration assay except that the HUVEC monolayer was omitted. In addition, instead of pre-coating the upper chamber with fibronectin, the lower chamber was pre-coated with gelatin to prevent adhesion of neutrophils. […] Neutrophils that had migrated through the filters after 1 hour incubation at 37° C. were counted. Counts are expressed as a percentage of the total number of cells added. […]

## N#CC(=C(/N)Sc1ccccc1N)/C(C#N)=C(\N)Sc1ccccc1N [U0126]
[1]; TNFα-activated HUVEC
  effect on neutrophil transmigration across TNFα-activated endothelium: inhibited transmigration across TNFα-activated endothelium to a similar extent as PD 98059
[1]; unstimulated HUVEC
  effect on neutrophil transmigration induced by a chemoattractant (fMLP) gradient: showed greater potency against fMLP-driven transmigration

## TNFα
Endothelial ERK (HUVEC) [2]
  endothelial ERK activation by direct treatment of endothelial monolayer: marginally activated ERK
Endothelial ERK (HUVEC) [3]
  fold activation of ERK (earlier observations): 1.5-2.0 fold
[4]; TNFα treatment of HUVEC, 4 h
  neutrophil adhesion to endothelium after treatment of the endothelium: stimulated neutrophil adhesion

## CSCC[C@H](NC=O)C(=O)N[C@@H](CC(C)C)C(=O)N[C@@H](Cc1ccccc1)C(=O)O [fMLP, N-formyl-methionyl-leucinyl-phenylalanine]
Endothelial ERK (HUVEC) [2]
  endothelial ERK activation by direct treatment of endothelial monolayer: did not activate endothelial ERK; also recorded: had no effect on endothelial ERK activation
Endothelial ERK (HUVEC) [2]; conditioned media of stimulated neutrophils added to HUVEC, phospho-ERK read-out
  induction of the ERK-activating factor in neutrophils: induced the ERK-activating factor

## COc1cccc(-c2cc(=O)c3ccccc3o2)c1N [PD98059]
Neutrophil chemotaxis; 1 nM IL-8 in lower chamber
  IL-8-stimulated neutrophil chemotaxis: not significantly affected
Neutrophil chemotaxis; 10 nM fMLP in lower chamber
  fMLP-stimulated neutrophil chemotaxis: not significantly affected
[4]; HUVEC stimulated with TNFα 4 h, inhibitor in final 30 min
  neutrophil adhesion to TNFα-activated endothelium in presence of inhibitor: not significantly affected
[1]; TNFα-activated HUVEC
  effect on neutrophil transmigration across TNFα-activated endothelium: inhibit in a dose-dependent manner
[1]; TNFα-activated HUVEC, inhibitor added 30 min before and with neutrophils, 1 h
  inhibition of transmigration across TNFα-activated endothelium: 70-80%
[1]; unstimulated HUVEC
  effect on neutrophil transmigration induced by a chemoattractant (fMLP) gradient: inhibit in a dose-dependent manner
[1]; unstimulated HUVEC, fMLP gradient (10 nM), 1 h
  inhibition of transmigration across an fMLP gradient: 40-50%

B1: IL-4: interleukin-4 (protein, UniProt P05112 25-153, looked up)
Interleukin-4: HKCDITLQEIIKTLNSLTEQKTLCTELTVTDIFAASKNTTEKETFCRAATVLRQFYSHHEKDTRCLGATAQQFHRHKQLIRFLKRLDRNLWGLAGLNSCPVKEANQSTLENFLERLKTIMREKYSKCSS
Endothelial ERK (HUVEC) [2]
  endothelial ERK activation by direct treatment of endothelial monolayer: marginally activated ERK
